Assay results reported in patent US10059694B2, “2-aminopyrimidine compound and pharmaceutical composition and use thereof” (Shanghai Institute of Materia Medica, Chinese Academy of …, priority 2014, dated 2018).

Key:
IGF-1R = target: T1, IGF-1R (Homo sapiens, UniProt P08069); test: kinase inhibitory activity test (ELISA), IGF-1R; type: biochemical; settings: ATP 5 μM, 1 hour at 37° C.
T1 construct: purchased Millipore
Experimental: (§1) The enzyme substrate poly (glutamic acid, tyrosine)4:1 (Sigma) was diluted with potassium-free PBS (10 mM sodium phosphate buffer, 150 mM NaCl, pH 7.2-7.4) to 20 μg/mL, plate coated with 125 μL/well, reacted for 12-16 hours at 37° C. After the liquid in the wells was discarded, the plates were washed three times with 200 μL/well of T-PBS (PBS containing 0.1% Tween-20), and each time for 5 minutes, and then dried for 1-2 hours in an oven at 37° C. 50 μL of ATP solution diluted with reaction buffer (50 mM HEPES pH 7.4, 50 mM MgCl2, 5 mM MnCl2, 0.2 mM Na3VO4, 1 mM DTT) was added into each well and the final concentration was 5 μM. The compounds were diluted with 1% DMSO to suitable concentrations and were added at 10 μL/well. Then different types of tyrosine kinase proteins (including EGFR^wt, EGFR^T790M/L858R and IGF-1R, purchased from Millipore) diluted with 40 μL of reaction buffer were added. The above reaction system was reacted for 1 hour at 37° C. shaking table (100 rpm). Control wells with no enzyme and control wells with DMSO solvent were set in each experiment. After the reaction was completed, the plates were washed three times with T-PBS. The anti-phosphotyrosine primary antibody PY99 (Santa Cruz) was added at 100 μL/well and the antibody was diluted with T-PBS containing BSA 5 mg/mL by 1:1000. The mixture was reacted for 0.5 h at 37° C. shaking table, the plates were washed three times with T-PBS. The secondary antibody which was horseradish peroxidase-labeled goat anti-mouse IgG was added at 100 μL/well (the antibody was diluted with T-PBS containing BSA 5 mg/mL by 1:2000). The mixture was reacted for 0.5 h at 37° C. shaking table, the plates were washed three times with T-PBS. 2 l/mL of OPD coloring solution was added at 100 μL/well (diluted with 0.1 M citric acid-sodium citrate buffer (pH=5.4) containing 0.03% H2O2) and dark reacted for 1 to 10 minutes at 25° C. 2 M H2SO4 was added at 50 μL/well to terminate the reaction. Reading was carried out with an adjustable wavelength microplate enzyme-labeled instrument SPECTRA MAX 190 at 490 nm wavelength.
(§2) The IC50 value was calculated by the four-parameter fitting of the suppression curve.

[1] = test system: human epidermal carcinoma A431 cell line; test: SRB proliferation assay, A431 cells; type: cell-based; settings: A-431, SRB, 72 h, read-out: IC50 A431
Experimental: (§3) Cell lines: human epidermal carcinoma A431 cell line and human non-small cell lung cancer NCI-H1975 cell line was purchased from the American Standard Biology Collection Center (ATCC).
(§4) Methods: sulforhodamine B (SRB) method, which was as follows: certain number of different tumor cells in logarithmic growth phase were inoculated on 96-well culture plates. After cultured for 24 h to cell adherence, different concentrations of the test compounds of the invention were added. Each concentration was provided with three wells, and a corresponding concentration of DMSO solvent control and a cell-free zeroing well were set. After the cells were treated with the medicine for 72 h, the culture medium was discarded and 100 μL of 10% pre-cooled trichloroacetic acid solution was added to fix the cells. After placed for 1 h at 4° C., it was washed for 5 times with distilled water and dried naturally. Then 100 μL SRB (4 mg/mL) (Sigma) solution was added and stained for 15 min at room temperature. The staining solution was discarded and washed for 5 times with 1% glacial acetic acid and dried. Finally, 150 μL of 10 mM Tris solution (pH 10.5) was added and the OD value was measured at 515 nm with adjustable wavelength microplate enzyme-labeled instrument (VERSAmax™, Molecular Device Corporation, Sunnyvale, Calif., USA).

EGFR^wt = target: T2, EGFR^wt (Homo sapiens, UniProt P00533); test: kinase inhibitory activity test (ELISA), EGFR^WT; type: biochemical; settings: ATP 5 μM, 1 hour at 37° C.
T2 construct: purchased Millipore
Experimental: as §1, with “Then different types of tyrosine kinase proteins (including EGFR^wt, EGFR^T790M/L858R and IGF-1R, purchased from Millipore) diluted with 40 μL of reaction buffer were added.” left out
as §2

[2] = test system: human non-small cell lung cancer NCI-H1975 cell line; test: SRB proliferation assay, NCI-H1975 cells; type: cell-based; settings: NCI-H1975, SRB, 72 h, read-out: IC50 NCI-H1975
Experimental: as §3
as §4, with “USA). […] Based on the inhibitory effect of the 2-aminopyrimidine compounds on the growth of these cells, the half maximal inhibitory concentration (IC50) values were calculated, as shown in Table 2.” for “USA).”

EGFR^T790M/L858R = target: T3, EGFR^T790M/L858R (Homo sapiens, UniProt P00533, L858R/T790M); test: kinase inhibitory activity test (ELISA), EGFR^T790M/L858R; type: biochemical; settings: ELISA, ATP 5 μM, 1 hour at 37° C.
T3 construct: purchased Millipore
Experimental: as §1, with “Then different types of tyrosine kinase proteins (including EGFR^wt, EGFR^T790M/L858R and IGF-1R, purchased from Millipore) diluted with 40 μL of reaction buffer were added.” left out
as §2

T3 sequence (P00533 25-1210 T790M/L858R): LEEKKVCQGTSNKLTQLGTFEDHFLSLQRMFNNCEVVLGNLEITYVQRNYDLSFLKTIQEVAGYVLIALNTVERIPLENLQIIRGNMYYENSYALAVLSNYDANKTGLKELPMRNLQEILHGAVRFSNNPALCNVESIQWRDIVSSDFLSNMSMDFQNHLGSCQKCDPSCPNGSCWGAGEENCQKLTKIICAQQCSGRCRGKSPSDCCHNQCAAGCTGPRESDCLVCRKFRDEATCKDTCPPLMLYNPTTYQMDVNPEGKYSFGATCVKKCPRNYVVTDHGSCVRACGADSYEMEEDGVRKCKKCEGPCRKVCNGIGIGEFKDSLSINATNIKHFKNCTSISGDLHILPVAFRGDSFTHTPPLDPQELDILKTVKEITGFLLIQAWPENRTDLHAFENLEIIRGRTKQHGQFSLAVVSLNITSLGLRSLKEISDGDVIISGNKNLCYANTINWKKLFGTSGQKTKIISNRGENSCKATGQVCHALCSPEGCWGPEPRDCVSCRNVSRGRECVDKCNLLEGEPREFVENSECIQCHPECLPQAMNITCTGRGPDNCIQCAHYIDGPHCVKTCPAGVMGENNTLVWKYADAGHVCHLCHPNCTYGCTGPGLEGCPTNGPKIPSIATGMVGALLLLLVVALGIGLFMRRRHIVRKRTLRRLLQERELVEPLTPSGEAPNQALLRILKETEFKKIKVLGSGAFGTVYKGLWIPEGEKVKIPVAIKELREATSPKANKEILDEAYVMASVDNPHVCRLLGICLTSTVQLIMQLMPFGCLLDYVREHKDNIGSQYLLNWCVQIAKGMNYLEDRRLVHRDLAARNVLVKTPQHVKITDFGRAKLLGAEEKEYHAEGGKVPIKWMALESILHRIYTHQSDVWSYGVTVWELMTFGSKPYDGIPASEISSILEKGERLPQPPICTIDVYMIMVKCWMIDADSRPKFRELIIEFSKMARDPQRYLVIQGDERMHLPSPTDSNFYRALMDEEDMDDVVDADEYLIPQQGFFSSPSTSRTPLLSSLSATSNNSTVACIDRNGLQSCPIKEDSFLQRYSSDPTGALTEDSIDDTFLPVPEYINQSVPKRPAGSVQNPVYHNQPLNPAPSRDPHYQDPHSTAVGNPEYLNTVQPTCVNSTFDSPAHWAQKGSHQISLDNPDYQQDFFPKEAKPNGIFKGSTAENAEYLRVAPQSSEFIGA
T2 sequence (P00533 25-1210): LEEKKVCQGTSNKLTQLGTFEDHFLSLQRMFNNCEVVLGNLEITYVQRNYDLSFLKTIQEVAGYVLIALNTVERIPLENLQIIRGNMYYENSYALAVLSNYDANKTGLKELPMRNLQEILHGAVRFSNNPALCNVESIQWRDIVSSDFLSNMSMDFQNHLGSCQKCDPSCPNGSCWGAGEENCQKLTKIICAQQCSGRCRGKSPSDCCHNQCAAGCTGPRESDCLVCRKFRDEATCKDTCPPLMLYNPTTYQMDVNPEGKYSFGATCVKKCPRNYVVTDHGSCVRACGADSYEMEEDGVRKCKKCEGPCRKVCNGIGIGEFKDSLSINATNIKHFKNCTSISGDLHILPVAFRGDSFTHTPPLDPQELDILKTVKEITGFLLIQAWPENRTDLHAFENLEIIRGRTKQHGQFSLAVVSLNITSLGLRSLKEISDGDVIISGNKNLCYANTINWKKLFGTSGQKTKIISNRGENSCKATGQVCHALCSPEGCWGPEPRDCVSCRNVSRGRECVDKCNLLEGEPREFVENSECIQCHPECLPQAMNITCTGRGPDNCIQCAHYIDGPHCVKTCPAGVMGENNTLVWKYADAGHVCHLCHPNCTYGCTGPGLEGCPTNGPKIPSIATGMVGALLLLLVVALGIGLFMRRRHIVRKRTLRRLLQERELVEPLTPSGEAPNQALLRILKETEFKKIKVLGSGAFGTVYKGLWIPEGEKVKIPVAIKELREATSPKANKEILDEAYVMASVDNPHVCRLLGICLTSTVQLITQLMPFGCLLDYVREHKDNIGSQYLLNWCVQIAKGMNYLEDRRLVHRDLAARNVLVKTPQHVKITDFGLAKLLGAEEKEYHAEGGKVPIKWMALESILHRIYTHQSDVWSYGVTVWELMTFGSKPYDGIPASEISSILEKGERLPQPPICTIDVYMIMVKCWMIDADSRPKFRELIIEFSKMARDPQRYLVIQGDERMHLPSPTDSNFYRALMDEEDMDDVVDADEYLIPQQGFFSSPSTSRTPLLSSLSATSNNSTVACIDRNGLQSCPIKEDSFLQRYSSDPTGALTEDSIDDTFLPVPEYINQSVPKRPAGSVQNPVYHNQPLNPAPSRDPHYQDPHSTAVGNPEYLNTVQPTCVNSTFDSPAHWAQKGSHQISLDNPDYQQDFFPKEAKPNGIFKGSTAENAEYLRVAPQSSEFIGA
T1 sequence (P08069 31-1367): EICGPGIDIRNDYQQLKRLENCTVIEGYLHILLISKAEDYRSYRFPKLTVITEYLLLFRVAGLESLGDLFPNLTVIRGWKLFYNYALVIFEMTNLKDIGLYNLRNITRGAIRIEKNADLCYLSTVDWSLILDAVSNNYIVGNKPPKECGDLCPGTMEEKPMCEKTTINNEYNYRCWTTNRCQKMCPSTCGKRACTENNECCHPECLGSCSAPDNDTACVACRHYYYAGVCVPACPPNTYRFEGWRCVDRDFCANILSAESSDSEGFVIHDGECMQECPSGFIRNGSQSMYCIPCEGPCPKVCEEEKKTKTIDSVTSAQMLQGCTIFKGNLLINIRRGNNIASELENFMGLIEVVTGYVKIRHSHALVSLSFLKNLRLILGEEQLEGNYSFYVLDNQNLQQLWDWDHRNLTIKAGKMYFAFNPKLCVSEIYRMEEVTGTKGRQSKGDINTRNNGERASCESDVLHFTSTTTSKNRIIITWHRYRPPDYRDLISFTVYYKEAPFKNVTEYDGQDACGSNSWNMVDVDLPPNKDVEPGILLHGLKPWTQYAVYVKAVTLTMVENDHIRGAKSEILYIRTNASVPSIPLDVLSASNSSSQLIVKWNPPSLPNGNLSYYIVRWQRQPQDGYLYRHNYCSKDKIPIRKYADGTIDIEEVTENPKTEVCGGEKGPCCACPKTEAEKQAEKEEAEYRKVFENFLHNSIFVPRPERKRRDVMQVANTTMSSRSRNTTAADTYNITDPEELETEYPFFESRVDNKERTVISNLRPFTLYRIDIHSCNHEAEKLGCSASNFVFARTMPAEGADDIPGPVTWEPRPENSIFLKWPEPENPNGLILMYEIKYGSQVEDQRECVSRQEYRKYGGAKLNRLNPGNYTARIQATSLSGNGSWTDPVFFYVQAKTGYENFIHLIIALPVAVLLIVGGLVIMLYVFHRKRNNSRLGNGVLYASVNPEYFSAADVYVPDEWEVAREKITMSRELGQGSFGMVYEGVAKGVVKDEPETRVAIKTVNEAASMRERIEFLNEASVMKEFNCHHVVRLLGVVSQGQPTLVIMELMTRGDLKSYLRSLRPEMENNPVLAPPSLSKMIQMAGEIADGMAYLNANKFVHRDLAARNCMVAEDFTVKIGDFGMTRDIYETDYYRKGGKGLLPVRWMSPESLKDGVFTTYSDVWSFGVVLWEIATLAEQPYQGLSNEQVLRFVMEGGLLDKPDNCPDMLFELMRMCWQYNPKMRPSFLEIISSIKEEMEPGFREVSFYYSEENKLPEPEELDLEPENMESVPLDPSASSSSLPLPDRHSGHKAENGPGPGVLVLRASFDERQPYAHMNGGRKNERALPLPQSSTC

Structure (SMILES) | IC50 (IGF-1R) | IC50 [1] | IC50 (EGFR^wt) | IC50 [2] | IC50 (EGFR^T790M/L858R)
COc1ccc(NC(=O)/C=C/CN(C)C)cc1Nc1ncc(Cl)c(Nc2ccc3[nH]ccc3c2)n1 [CCB145231, (E)-N-((3-((5-chloro-4-((indol-5-yl)amino))pyrimidin-2-yl)amino)-4-methoxyphenyl)-4-(dimethylamino)-2-butenamide] | 38 nM | 615 nM | 295 nM | 289 nM | 30.8 nM
COc1ccc(NC(=O)/C=C/CN(C)C)cc1Nc1ncc(Cl)c(Oc2ccc3ccccc3c2)n1 [CCB145260, (E)-N-((3-((5-chloro-4-((naphthalen-2-yl)oxy))pyrimidin-2-yl)amino)-4-methoxyphenyl)-4-(dimethylamino)-2-butenamide] | 297 nM | 17800 nM | > 10000 nM | 2040 nM | 293 nM
COc1ccc(NC(=O)/C=C/CN(C)C)cc1Nc1ncc(Cl)c(Sc2ccc3ccccc3c2)n1 [CCB145291, (E)-N-((3-((5-chloro-4-((naphthalen-2-yl)sulfenyl))pyrimidin-2-yl)amino)-4-methoxyphenyl)-4-(dimethylamino)-2-butenamide] | 347 nM | 11100 nM | ≥ 10000 nM | 2780 nM | 159 nM
COc1ccc(NC(=O)/C=C/CN(C)C)cc1Nc1ncc(Cl)c(N(C)c2ccc3ccccc3c2)n1 [CCB145295, (E)-N-((3-((5-chloro-4-(N-methyl-(naphthalen-2-yl)amino))pyrimidin-2-yl)amino)-4-methoxyphenyl)-4-(dimethylamino)-2-butenamide] | > 1000 nM | 1080 nM | 93.9 nM | 1180 nM | 47.2 nM
CN(C)C/C=C/C(=O)Nc1ccc(F)c(Nc2ncc(Cl)c(Nc3ccc4ccccc4c3)n2)c1 [CCB145329] | 198 nM | 20500 nM | 1400 nM | 1060 nM | 55.7 nM

Next, values leading:

IC50 (IGF-1R) | IC50 [1] | IC50 (EGFR^wt) | IC50 [2] | IC50 (EGFR^T790M/L858R) | Structure (SMILES)
98.5 nM | 1040 nM | 54.1 nM | 885 nM | 56.6 nM | COc1ccc(NC(=O)/C=C/CN(C)C)cc1Nc1nccc(Nc2ccc3ccccc3c2)n1 [CCB145242, (E)-N-((3-(4-((naphthalen-2-yl)amino)pyrimidin-2-yl)amino)-4-methoxyphenyl)-4-(dimethylamino)-2-butenamide]
182 nM | 1110 nM | 225 nM | 1160 nM | 102 nM | COc1ccc(NC(=O)/C=C/CN(C)C)cc1Nc1ncc(OC)c(Nc2ccc3ccccc3c2)n1 [CCB145268, (E)-N-((3-((5-methoxy-4-((naphthalen-2-yl)amino))pyrimidin-2-yl)amino)-4-methoxyphenyl)-4-(dimethylamino)-2-butenamide]
41 nM | 1220 nM | 2070 nM | 682 nM | 31.3 nM | COc1ccc(NC(=O)/C=C/CN(C)C)cc1Nc1ncc(C(F)(F)F)c(Nc2ccc3ccccc3c2)n1 [CCB145274, (E)-N-((3-((5-trifluoromethyl-4-((naphthalen-2-yl)amino))pyrimidin-2-yl)amino)-4-methoxyphenyl)-4-(dimethylamino)-2-butenamide]
85.2 nM | 1040 nM | 2290 nM | 860 nM | 151 nM | COc1ccc(NC(=O)/C=C/CN(C)C)cc1Nc1ncc(C(C)C)c(Nc2ccc3ccccc3c2)n1 [CCB145283, (E)-N-((3-((5-isopropyl-4-((naphthalen-2-yl)amino))pyrimidin-2-yl)amino)-4-methoxyphenyl)-4-(dimethylamino)-2-butenamide]
20.5 nM | 1120 nM | 254 nM | 416 nM | 22.5 nM | COc1ccc(NC(=O)/C=C/CN(C)C)cc1Nc1ncc(Br)c(Nc2ccc3ccccc3c2)n1 [CCB145286, (E)-N-((3-((5-bromo-4-((naphthalen-2-yl)amino))pyrimidin-2-yl)amino)-4-methoxyphenyl)-4-(dimethylamino)-2-butenamide]
151 nM | 611 nM | 131 nM | 375 nM | 32 nM | COc1ccc(NC(=O)/C=C/CN(C)C)cc1Nc1ncc(F)c(Nc2ccc3ccccc3c2)n1 [CCB145287, (E)-N-((3-((5-fluoro-4-((naphthalen-2-yl)amino))pyrimidin-2-yl)amino)-4-methoxyphenyl)-4-(dimethylamino)-2-butenamide]
103 nM | 839 nM | 232 nM | 1000 nM | 72.9 nM | COc1ccc(NC(=O)/C=C/CN(C)C)cc1Nc1ncc(C)c(Nc2ccc3ccccc3c2)n1 [CCB145289, (E)-N-((3-((5-methyl-4-((naphthalen-2-yl)amino))pyrimidin-2-yl)amino)-4-methoxyphenyl)-4-(dimethylamino)-2-butenamide]
193 nM | 1300 nM | 173 nM | 327 nM | 22.6 nM | COc1ccc(NC(=O)/C=C/CN(C)C)cc1Nc1ncc(C#N)c(Nc2ccc3ccccc3c2)n1 [CCB145293, (E)-N-((3-((5-cyano-4-((naphthalen-2-yl)amino))pyrimidin-2-yl)amino)-4-methoxyphenyl)-4-(dimethylamino)-2-butenamide]
